# Values joined by “and” are separate entries in the source; they are usually repeats but may differ in a detail not shown here. Equal values may be shown once.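 Exposure lasted 48 hours, with cells grown in 96-well plates and compounds tested at five concentrations. GI50: concentration for 50% inhibition of growth. TGI is the concentration that stops growth completely.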
# Key:
# Assay in all cases: inhibition of tumour cell growth, NCI panel, 48 h
# OVCAR-8 ovarian = system: OVCAR-8 ovarian
# COLO 205 colon = system: COLO 205 colon
# NCI-H460 lung = system: NCI-H460 lung
# M14 melanoma = system: M14 melanoma
# A549 NSCLC = system: A549 NSCLC
# SNB-75 CNS = system: SNB-75 CNS
# SF-268 CNS = system: SF-268 CNS
# CCRF-CEM leukemia = system: CCRF-CEM leukemia
# SK-MEL-28 melanoma = system: SK-MEL-28 melanoma
# PC-3 prostate = system: PC-3 prostate
SMILES,TGI (OVCAR-8 ovarian) [µM],TGI (COLO 205 colon) [µM],TGI (NCI-H460 lung) [µM],TGI (M14 melanoma),TGI (A549 NSCLC) [µM],TGI (SNB-75 CNS) [µM],TGI (SF-268 CNS),TGI (CCRF-CEM leukemia) [µM],TGI (SK-MEL-28 melanoma) [µM],GI50 (SK-MEL-28 melanoma) [µM],GI50 (OVCAR-8 ovarian) [µM],GI50 (COLO 205 colon) [µM],GI50 (NCI-H460 lung) [µM],GI50 (M14 melanoma) [µM],GI50 (A549 NSCLC) [µM],GI50 (SNB-75 CNS) [µM],GI50 (PC-3 prostate) [µM],TGI (PC-3 prostate) [µM],GI50 (SF-268 CNS) [µM],GI50 (CCRF-CEM leukemia) [µM]
Cc1ccccc1C(=O)c1cc(O)ccc1O,> 100,> 100,> 100,> 100 µM,> 100,> 100,> 100 µM,> 100,,,,,,,,,,,,
CC(C)(C)c1cc(C(P(=O)(O)O)P(=O)(O)O)cc(C(C)(C)C)c1O,> 100,,> 100,> 100 µM,> 100,> 100,> 100 µM,> 100,> 100,,,,,,,,,,,
CN(C)CCC(/C=C/c1ccccc1)=N\Nc1ccccc1,23.9,3.7,10.7,13 µM,4.21,13.7,10.4 µM,15.2,3.54,,,,,,,,,,,
COC(=O)c1c2c(c(C)[n+]([O-])c1C)C(=O)C=C(NCc1ccc(F)cc1)C2=O,1.93,0.97,2,1.9 µM,3.15,3.03,4.66 µM,6,3.37,1.1,0.37,0.301,0.493,0.513,0.794,1.65,0.317,3.68,1.38,0.5
O=c1c(F)cn(Cc2ccc(C34CC5CC(CC(C5)C3)C4)c(O)c2)c(=O)n1Cc1ccc(C23CC4CC(CC(C4)C2)C3)c(O)c1,45.5,37.5,37.2,45.3 µM,> 100,30,32.6 µM,> 100,32.3,17.7,14.5,18,9.76,18.4,4.2,15.1,10.7,24.2,12.8,9.46
Cc1nc(Nc2ccc(Cl)cc2)sc1C(=O)NNC(=S)NN,43.7,43.6,38.3,35.1 µM,39.6,64.3,48.5 µM,88.5,35,,,,,,,,,,,
COc1cc(OC)c2c(=O)cc(-c3ccc(OC)c(OC)c3OC)oc2c1,,> 100,,> 100 µM,> 100,45.3,> 100 µM,,> 100,,,,,,,,,,,
CN1CCN(c2ccc(Nc3cc(-c4cccc(-n5ccc6cc(C7CC7)cc(F)c6c5=O)c4CO)cn(C)c3=O)nc2)CC1,29.7,5.72,15.7,8.19 µM,19.2,2.96,20.9 µM,7.73,17,4.1,4.84,2.22,3.83,2.69,5.27,1.33,8.93,25.2,5.58,2.19
CSc1nc(SC)c2c(C#N)[nH]nc2n1,> 100,> 100,> 100,> 100 µM,> 100,> 100,> 100 µM,> 100,> 100,,,,,,,,,,,
COC(=O)C(=Cc1cc(OC)c(OC)c(OC)c1-c1cc2c(cc1C1(C)OCCS1)OCO2)C(=O)OC (configuration not stated),> 100,> 100,> 100,,> 100,,> 100 µM,> 100,> 100,,,,,,,,,,,
O=C(Nc1cccc(Cl)c1)C(=O)C(C(=O)c1ccc2ccccc2c1)C1OC(=O)c2ccccc21 (configuration not stated),68.9,38.1,30.5,36.7 µM,> 100,,57.5 µM,52.4,25.8,,,,,,,,,,,
O=[N+]([O-])c1ccc2occ3c2c1CCC3,> 100,> 100,> 100,> 100 µM,> 100,> 100,> 100 µM,> 100,> 100,,,,,,,,,,,
C#CC1/C(=C\C(=O)OC)CCCC1O (configuration not stated),> 100,> 100,> 100,> 100 µM,> 100,> 100,> 100 µM,> 100,,,,,,,,,,,,
Cc1cc2c(=O)c3ccccc3[nH]c2c(C(N)=O)c1C,> 100,> 100,> 100,> 100 µM,> 100,> 100,> 100 µM,> 100,> 100,,,,,,,,,,,
CCOC(=O)c1ccc(/C(C)=N/NC(N)=S)cc1,> 100,> 100,> 100,> 100 µM,> 100,> 100,,> 100,> 100,,,,,,,,,,,
NC(N)=N/N=C/c1c(Cl)cccc1Cl,> 100,32.1,32.5,,> 100,54.1,89.4 µM,> 100,34.6,17.6,30,17.2,15.6,,27.4,16.7,31,> 100,23.9,28.5
CC(=O)Nc1ccc(-c2csc(Nc3cccc(-c4csc(C)n4)c3)n2)cc1,20.8,> 50,> 50,8.81 µM,18.9,,> 27.1 µM,> 50,> 37.3,7.32,2.44,1,1,0.743,1.21,,1.67,> 19.9,4.38,> 50
COc1c(O)c2c(=O)cc3c4c5c(cc(=O)c6c(O)c(OC)c(CC(C)O)c(c(c1CC(C)O)c24)c65)OCO3 (configuration not stated),5.15,0.765,2.32,3.57 µM,8.39,7.56,5.97 µM,16.7,4.23,,,,,,,,,,,
CC(C)C1=Cc2ccc3c(c2C(=O)C1=O)CCCC3(C)C,10,14.5,37,16.2 µM,34.8,29.3,20.2 µM,> 100,13.1,,,,,,,,,,,
COC(=O)C1CCCC2(C1)OCCO2 (configuration not stated),> 100,> 100,> 100,> 100 µM,> 100,> 100,> 100 µM,> 100,> 100,,,,,,,,,,,
O=C1CCC2(c3ccc(Cl)cc3)Nc3cc(Cl)ccc3N12 (configuration not stated),20.6,18,,28.7 µM,26.5,27.7,25.8 µM,10.7,25.3,,,,,,,,,,,

SMILES,TGI (OVCAR-8 ovarian) [µM],TGI (COLO 205 colon) [µM],TGI (NCI-H460 lung) [µM],TGI (M14 melanoma),TGI (A549 NSCLC) [µM],TGI (SNB-75 CNS) [µM],TGI (SF-268 CNS),TGI (CCRF-CEM leukemia) [µM],TGI (SK-MEL-28 melanoma) [µM],GI50 (SK-MEL-28 melanoma) [µM],GI50 (OVCAR-8 ovarian) [µM],GI50 (COLO 205 colon) [µM],GI50 (NCI-H460 lung) [µM],GI50 (M14 melanoma) [µM],GI50 (A549 NSCLC) [µM],GI50 (SNB-75 CNS) [µM],GI50 (PC-3 prostate) [µM],TGI (PC-3 prostate) [µM],GI50 (SF-268 CNS) [µM],GI50 (CCRF-CEM leukemia) [µM]
CCOC(=O)N[C@H]1CCc2cc(OC)c(OC)c(OC)c2-c2ccc(SC)c(=O)cc21,> 100,,> 100,21.7 µM and > 27.1 µM,> 100,,47.2 µM and > 100 µM,> 100,> 100,> 55.6,,,,,,< 0.01,,> 100,,
COc1ccc(-c2nnc3n(C)c(=O)c4ccccc4n23)cc1N,> 100,4.44,> 100,> 100 µM,> 100,,> 100 µM,> 100,,,4.94,0.0469,0.0508,0.0475,1.47,,2.65,> 100,7.17,2.75
C=CCCCCC1CCC2CCC(CCCCC=C)N12 (configuration not stated),33.1,32.5,26.2,31.3 µM,30,43.1,29.8 µM,37.7,32.2,,,,,,,,,,,
COc1ccc(C(=O)Nc2ccc(O)c(=O)cc2)cc1,91.7,57,28.7,> 100 µM,> 100,,63.4 µM,72.1,56.4,,,,,,,,,> 100,,
CC12CCC(=O)C[C@H]1CCC(OC=O)C2Br (some centres not stated),> 100,> 100,> 100,> 100 µM,> 100,> 100,> 100 µM,> 100,> 100,,,,,,,,,,,
Cc1ccc2nc(/C(=C/c3ccc(/C=C(\NC(=O)c4ccccc4)c4nc5ccc(C)cc5[nH]4)c(C)c3)NC(=O)c3ccccc3)[nH]c2c1,81.8,80.4,35.8,52.7 µM,65.9,> 100,> 100 µM,41.9,44.1,,,,,,,,,,,
COc1ccc(CCN(C)C2CCC(C#N)(c3ccc(OC)c(OC)c3)CC2)cc1OC (configuration not stated),> 100,91.4,> 100,> 100 µM,> 100,> 100,> 100 µM,> 100,> 100,,,,,,,,,,,
NNC(=O)CNc1cccc(Br)c1,> 100,> 100,> 100,> 100 µM,> 100,> 100,> 100 µM,,> 100,,,,,,,,,> 100,,
COC(=O)/C(C#N)=C1\N=NNN1c1ccc(OC)cc1,> 100,> 100,> 100,> 100 µM,> 100,> 100,,> 100,> 100,,,,,,,,,,,
CCOC(=O)Nc1cc2c(c(N)n1)N=C(c1ccccc1)CO2,> 32.9,0.885,5.26,93 µM,13.8,,15.8 µM,4.42,77.7,15.6,0.418,0.102,0.0659,0.166,0.167,,0.182,6.44,0.325,0.0653
CN(C)C(=S)/N=c1\sn(C)/c(=N\C(=S)N(C)C)n1C,> 100,> 100,> 100,> 100 µM,> 100,> 100,> 100 µM,,> 100,,,,,,,,,,,
COC(=O)/C(=C/c1ccc(OC)cc1)C(C(=O)O)=C1CCCC1,> 100,> 100,> 100,> 100 µM,> 100,> 100,,> 100,,,,,,,,,,,,
CCCCCCCCCCCCCCCC(=O)OCCOCCOCCOCc1ccccc1,> 100,> 100,> 100,,> 100,> 100,> 100 µM,,> 100,,,,,,,,,,,
COC(=O)/C(=N\NC(N)=S)C(C(=O)OC)C(=O)C(=O)Nc1ccc(C)cc1 (configuration not stated),> 100,> 100,> 100,> 100 µM,> 100,> 100,> 100 µM,> 100,> 100,,,,,,,,,,,
COC1C(OC(=S)Nc2ccccc2)c2ccccc2N1C(C)=O (configuration not stated),> 100,> 100,> 100,> 100 µM,> 100,> 100,,> 100,> 100,,,,,,,,,,,
NC1CCN(Cc2ccccc2)CC1,> 100,> 100,> 100,> 100 µM,> 100,> 100,> 100 µM,> 100,,,> 100,> 100,> 100,> 100,> 100,> 100,> 100,> 100,> 100,> 100
CC1=Cc2cccc(C)c2C(=O)C1=O,41.7,3.49,41.9,9.54 µM,25.1,29.9,25.9 µM,,31.5,,,,,,,,,,,
O=C(/C(=C/c1ccc(Cl)cc1)c1ccccc1)c1ccccc1,50.7,33,34.8,31.4 µM,,69.4,41.8 µM,> 100,30.6,,,,,,,,,,,
CCOC(=O)c1nc2c(OC)nn(O)cc-2c1[N+](=O)[O-],36.4,61.9,49.2,36.4 µM,> 100,,94.9 µM,50.9,29.9,,,,,,,,,,,
O=C1N=C2Sc3ccc4ccccc4c3N2C1=O,34,> 100,70.2,73.8 µM,41.2,40.7,52.3 µM,> 100,56.3,,,,,,,,,,,
COCC(OC)C(CC=C(C#N)C#N)OC (configuration not stated),> 100,> 100,,> 100 µM,> 100,,> 100 µM,> 100,> 100,,,,,,,,,,,

# Source: PubChem BioAssay (NCI)
